Results from article PMC12892976, “Alkylation-based optimization of antifungal FPPS inhibitors yields a potent, broad-spectrum lipophilic zoledronate derivative” (mBio, 2025).
Converted amounts (≈) assume the structure as drawn.

Legend:
Type in all cases: cell-based
[1] = system: Mucor circinelloides; test: MIC broth microdilution (CLSI); settings: Mucor circinelloides 80-14-240-5007
Procedure: (§1) Antifungal susceptibility was determined by broth microdilution according to the CLSI guidelines described in M27-Ed4 ([16]).

[2] = system: Rhizopus oryzae; test: MIC broth microdilution (CLSI); settings: Rhizopus oryzae 04-14-364-1703
Procedure: as §1

[3] = system: Cryptococcus bacillisporus; test: MIC broth microdilution (CLSI); settings: Cryptococcus bacillisporus NIH179
Procedure: as §1

[4] = system: Cryptococcus deneoformans; test: MIC broth microdilution (CLSI); settings: Cryptococcus deneoformans JEC21
Procedure: as §1

[5] = system: Pichia kudriavzevii; test: MIC broth microdilution (CLSI); settings: Pichia kudriavzavii ATCC 6258
Procedure: Antifungal susceptibility was determined by broth microdilution according to the CLSI guidelines described in M27-Ed4 ([16]). […] MFC was determined by back-plating drug-treated cultures from MIC broths onto SDA plates. The MFC was defined as the lowest concentration from which no colonies could be cultured.

[6] = system: Candida auris; test: MIC broth microdilution (CLSI); settings: Candida auris CDC-0384
Procedure: as §1

[7] = system: Aspergillus niger; test: MIC broth microdilution (CLSI); settings: Aspergillus niger 111
Procedure: as §1

[8] = system: Aspergillus lentulus; test: MIC broth microdilution (CLSI); settings: Aspergillus lentulus DTO 341-G7
Procedure: as §1

[9] = system: Aspergillus parafelis; test: MIC broth microdilution (CLSI); settings: Aspergillus parafelis DTO 341-F2
Procedure: as §1

[10] = system: Aspergillus frankstonensis; test: MIC broth microdilution (CLSI); settings: Aspergillus frankstonensis DTO 341-F3
Procedure: as §1

[11] = system: Paraphyton cookei; test: MIC broth microdilution (CLSI); settings: Paraphyton cookei R-639
Procedure: as §1

[12] = system: Nannizzia nana; test: MIC broth microdilution (CLSI); settings: Nannizzia nana R-133
Procedure: as §1

[13] = system: Trichophyton interdigitale; test: MIC broth microdilution (CLSI); settings: Trichophyton interdigitale R-234
Procedure: as §1

[14] = system: Rhizopus oryzae; test: checkerboard drug interaction (FICI, MICc);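 note: simplified diagonal checkerboard screen pairing antifungals with FPPS inhibitors, FICI calculated under the Loewe additivity model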
Procedure: (§2) Drug interactions between antifungals and FPPS inhibitors were investigated using a simplified checkerboard diagonal screening method ([45]). […] FICIs were determined according to the Loewe additivity model ([17]).

[15] = system: Cryptococcus bacillisporus; test: checkerboard drug interaction (FICI, MICc);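 note: interaction of antifungals with FPPS inhibitors assessed by a simplified diagonal checkerboard screen, with FICI computed under the Loewe additivity model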
Procedure: as §2

[16] = system: Cryptococcus tetragattii; test: checkerboard drug interaction (FICI, MICc);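 note: simplified diagonal checkerboard screen pairing antifungals with FPPS inhibitors, with FICI calculated under the Loewe additivity model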
Procedure: as §2

[17] = system: Cryptococcus deneoformans; test: checkerboard drug interaction (FICI, MICc);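 note: simplified diagonal checkerboard screen pairing antifungals with FPPS inhibitors, FICI calculated under the Loewe additivity model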
Procedure: as §2

[18] = system: Scedosporium apiospermum; test: checkerboard drug interaction (FICI, MICc);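 note: simplified diagonal checkerboard screen of antifungal plus FPPS inhibitor pairs, with FICI computed under the Loewe additivity model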
Procedure: as §2

[19] = system: Candida auris; test: checkerboard drug interaction (FICI, MICc);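 note: simplified diagonal checkerboard screen pairing antifungals with FPPS inhibitors, with FICI computed under the Loewe additivity model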
Procedure: as §2

[20] = system: Candida dubliniensis; test: checkerboard drug interaction (FICI, MICc);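 note: simplified diagonal checkerboard screen pairing antifungals with FPPS inhibitors, FICI calculated under the Loewe additivity model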
Procedure: as §2

[21] = system: Aspergillus niger; test: checkerboard drug interaction (FICI, MICc);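 note: simplified diagonal checkerboard screen pairing antifungals with FPPS inhibitors, FICI calculated under the Loewe additivity model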
Procedure: as §2

[22] = system: Aspergillus terreus; test: checkerboard drug interaction (FICI, MICc);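 note: simplified diagonal checkerboard screen pairing antifungals with FPPS inhibitors, FICI derived by the Loewe additivity model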
Procedure: as §2

## O=P(O)(O)C(O)(Cn1ccnc1)P(=O)(O)O [ZOL, zoledronate]
[1]
  MIC / MEC: 64 µg/mL (≈ 235 µM)
[2]
  MIC / MEC: >256 µg/mL
[3]
  MIC / MEC: 128 µg/mL (≈ 470 µM)
[4]
  MIC / MEC: 128 µg/mL (≈ 470 µM)
[5]
  MIC / MEC: 256 µg/mL (≈ 941 µM)
[6]
  MIC / MEC: 128 µg/mL (≈ 470 µM)
[7]
  MIC / MEC: >256 µg/mL
[8]
  MIC / MEC: >256 µg/mL
[9]
  MIC / MEC: >256 µg/mL
[10]
  MIC / MEC: 128 µg/mL (≈ 470 µM)
[11]
  MIC / MEC: 128 µg/mL (≈ 470 µM)
[12]
  MIC / MEC: 128 µg/mL (≈ 470 µM)
[13]
  MIC / MEC: 256 µg/mL (≈ 941 µM)
[14]; 5FC:ZOL
  FICI: 3
[14]; AMB:ZOL
  FICI: 1.13
[14]; CAS:ZOL
  FICI: 0.63
[14]; FLC:ZOL
  FICI: 1
[14]; ITR:ZOL
  FICI: 1.02
[14]; KET:ZOL
  FICI: 0.63
[14]; VOR:ZOL
  FICI: 0.52
[14]; ZOL with 5FC
  bisphosphonate MICc: 512
[14]; ZOL with AMB
  bisphosphonate MICc: 64
[14]; ZOL with CAS
  bisphosphonate MICc: 256
[14]; ZOL with FLC
  bisphosphonate MICc: 256
[14]; ZOL with ITR
  bisphosphonate MICc: 8
[14]; ZOL with KET
  bisphosphonate MICc: 64
[14]; ZOL with VOR
  bisphosphonate MICc: 8
[15]; 5FC:ZOL
  FICI: 1.03
[15]; AMB:ZOL
  FICI: 6
[15]; CAS:ZOL
  FICI: 1.13
[15]; FLC:ZOL
  FICI: 0.38
[15]; ITR:ZOL
  FICI: 1.29
[15]; KET:ZOL
  FICI: 1.02
[15]; VOR:ZOL
  FICI: 2.33
[15]; ZOL with 5FC
  bisphosphonate MICc: 128
[15]; ZOL with AMB
  bisphosphonate MICc: 256
[15]; ZOL with CAS
  bisphosphonate MICc: 16
[15]; ZOL with FLC
  bisphosphonate MICc: 32
[15]; ZOL with ITR
  bisphosphonate MICc: 32
[15]; ZOL with KET
  bisphosphonate MICc: 2
[15]; ZOL with VOR
  bisphosphonate MICc: 32
[16]; 5FC:ZOL
  FICI: 1.13
[16]; AMB:ZOL
  FICI: 1.25
[16]; CAS:ZOL
  FICI: 2.5
[16]; FLC:ZOL
  FICI: 0.5
[16]; ITR:ZOL
  FICI: 2.06
[16]; KET:ZOL
  FICI: 0.75
[16]; VOR:ZOL
  FICI: 1.46
[16]; ZOL with 5FC
  bisphosphonate MICc: 64
[16]; ZOL with AMB
  bisphosphonate MICc: 64
[16]; ZOL with CAS
  bisphosphonate MICc: 32
[16]; ZOL with FLC
  bisphosphonate MICc: 16
[16]; ZOL with ITR
  bisphosphonate MICc: 4
[16]; ZOL with KET
  bisphosphonate MICc: 16
[16]; ZOL with VOR
  bisphosphonate MICc: 32
[17]; 5FC:ZOL
  FICI: 0.38
[17]; AMB:ZOL
  FICI: 0.63
[17]; CAS:ZOL
  FICI: 1
[17]; FLC:ZOL
  FICI: 0.5
[17]; ITR:ZOL
  FICI: 2.09
[17]; KET:ZOL
  FICI: 0.37
[17]; VOR:ZOL
  FICI: 1.54
[17]; ZOL with 5FC
  bisphosphonate MICc: 16
[17]; ZOL with AMB
  bisphosphonate MICc: 16
[17]; ZOL with CAS
  bisphosphonate MICc: 64
[17]; ZOL with FLC
  bisphosphonate MICc: 32
[17]; ZOL with ITR
  bisphosphonate MICc: 1
[17]; ZOL with KET
  bisphosphonate MICc: 16
[17]; ZOL with VOR
  bisphosphonate MICc: 64
[18]; 5FC:ZOL
  FICI: 3
[18]; AMB:ZOL
  FICI: 1.5
[18]; CAS:ZOL
  FICI: ≥4
[18]; FLC:ZOL
  FICI: 0.63
[18]; ITR:ZOL
  FICI: 0.56
[18]; KET:ZOL
  FICI: 0.63
[18]; VOR:ZOL
  FICI: 1.5
[18]; ZOL with 5FC
  bisphosphonate MICc: 256
[18]; ZOL with AMB
  bisphosphonate MICc: 128
[18]; ZOL with CAS
  bisphosphonate MICc: 512
[18]; ZOL with FLC
  bisphosphonate MICc: 32
[18]; ZOL with ITR
  bisphosphonate MICc: 16
[18]; ZOL with KET
  bisphosphonate MICc: 32
[18]; ZOL with VOR
  bisphosphonate MICc: 128
[19]; 5FC:ZOL
  FICI: 1.5
[19]; AMB:ZOL
  FICI: 1.13
[19]; CAS:ZOL
  FICI: 1.25
[19]; FLC:ZOL
  FICI: 0.38
[19]; ITR:ZOL
  FICI: 0.63
[19]; KET:ZOL
  FICI: 0.5
[19]; VOR:ZOL
  FICI: 0.63
[19]; ZOL with 5FC
  bisphosphonate MICc: 128
[19]; ZOL with AMB
  bisphosphonate MICc: 16
[19]; ZOL with CAS
  bisphosphonate MICc: 32
[19]; ZOL with FLC
  bisphosphonate MICc: 32
[19]; ZOL with ITR
  bisphosphonate MICc: 16
[19]; ZOL with KET
  bisphosphonate MICc: 32
[19]; ZOL with VOR
  bisphosphonate MICc: 16
[20]; 5FC:ZOL
  FICI: 0.56
[20]; AMB:ZOL
  FICI: 2
[20]; CAS:ZOL
  FICI: 0.2
[20]; FLC:ZOL
  FICI: 0.42
[20]; ITR:ZOL
  FICI: 0.5
[20]; KET:ZOL
  FICI: 0.38
[20]; VOR:ZOL
  FICI: 0.46
[20]; ZOL with 5FC
  bisphosphonate MICc: 0.25
[20]; ZOL with AMB
  bisphosphonate MICc: 4
[20]; ZOL with CAS
  bisphosphonate MICc: 0.125
[20]; ZOL with FLC
  bisphosphonate MICc: 1
[20]; ZOL with ITR
  bisphosphonate MICc: 1
[20]; ZOL with KET
  bisphosphonate MICc: 1
[20]; ZOL with VOR
  bisphosphonate MICc: 1
[21]; 5FC:ZOL
  FICI: 3
[21]; AMB:ZOL
  FICI: 0.98
[21]; CAS:ZOL
  FICI: 2
[21]; FLC:ZOL
  FICI: 2
[21]; ITR:ZOL
  FICI: 0.56
[21]; KET:ZOL
  FICI: 1
[21]; VOR:ZOL
  FICI: 1.02
[21]; ZOL with 5FC
  bisphosphonate MICc: 512
[21]; ZOL with AMB
  bisphosphonate MICc: 8
[21]; ZOL with CAS
  bisphosphonate MICc: 512
[21]; ZOL with FLC
  bisphosphonate MICc: 512
[21]; ZOL with ITR
  bisphosphonate MICc: 32
[21]; ZOL with KET
  bisphosphonate MICc: 256
[21]; ZOL with VOR
  bisphosphonate MICc: 8
[22]; 5FC:ZOL
  FICI: 1.5
[22]; AMB:ZOL
  FICI: 1
[22]; CAS:ZOL
  FICI: 1.5
[22]; FLC:ZOL
  FICI: 0.38
[22]; ITR:ZOL
  FICI: 0.51
[22]; KET:ZOL
  FICI: 0.25
[22]; VOR:ZOL
  FICI: 0.52
[22]; ZOL with 5FC
  bisphosphonate MICc: 128
[22]; ZOL with AMB
  bisphosphonate MICc: 64
